“Also recorded” adds a separate entry of the source. Where no end group is shown, it is not given here.
Experiments:
[1] = test system: NIH:OVCAR5 control shRNA and NIH:OVCAR5-VB3 cells; experiment: Spheroid formation of cells pretreated with mitomycin C; assay type: cell-based, human; settings: data not shown
Description: (§1) Spheroids were formed from the NIH:OVCAR5 cell lines described above using the liquid overlay method. One milliliter of a single cell suspension was seeded at a concentration of 50,000 cells/ml in OptiMEM® media, into 24-well tissue culture plates coated with 0.5% Seakem agarose (in complete RPMI-1640). Plates were incubated at 37° C. in a humidified incubator with 5% CO2. At various time points up to 5 days, the plates were removed from the incubator and the spheroids were photographed with a Nikon CoolPix digital camera mounted on an Olympus CK2 inverted microscope with a 4× objective. The size of the spheroids was determined using the measure tool in Adobe Photoshop. The largest spheroids were quantified (20-90 spheroids/well), in a minimum of 8 wells, for a total of >300 spheroids per cell type.
Ovarian cancer is unique in that tumor cells commonly grow within the peritoneal cavity as free floating multi-cellular aggregates (spheroids) in the ascites fluid. […] Spheroids formed by both cell types appeared tightly aggregated, in contrast to previous results with the cell adhesion molecule claudin-4, where cells depleted of claudin-4 formed spheroids more slowly and the spheroids formed had increased paracellular permeability. […]

[2] = test system: adhesion of NIH:OVCAR5-N4-over cells to recombinant human Nectin-1 extracellular domain; experiment: Inhibition of NIH:OVCAR5-N4-over cell adhesion to recombinant Nectin-1 by synthetic nectin peptides; assay type: cell-based; settings: 150 μg/ml peptide; 0.5 μg/well Nectin-1; 30 min adhesion; listed as N1-P20
Description: Black, clear-bottom 96-well microtiter plates (Corning, Imported Costar, Corning, N.Y.) were coated with recombinant human Nectin-1 extracellular domain (R&D Systems), recombinant human Nectin-4 extracellular domain (R&D Systems), mouse laminin (Invitrogen™), or bovine serum albumin (BSA; Probumin Diagnostic Grade, MilliPore) diluted in PBS. Covered plates were incubated overnight at 37° C. in a humidified incubator. After washing with PBS plus Ca^2+/Mg^2+ containing 2 mg/ml ovalbumin (Sigma-Aldrich), the plates were blocked for 1 hat 37° C. with 1% BSA in PBS without Ca^2+/Mg^2+. Confluent monolayers of NIH:OVCAR5 cells or NIH:OVCAR5-N4-over cells were detached with Accutase, and then filtered through a 40 μm cell strainer (BD Biosciences, San Jose, Calif.) to remove cell aggregates. The single cells were stained with CellTracker Green CMFDA (5-chloromethylfluorescein diacetate; Invitrogen™) according to the manufacturer's protocol. […] Plates were vigorously washed four times and read in a BioTek Synergy fluorescent microplate reader (BioTek, Winooski, V A). […]
Microtiter plates coated with recombinant Nectin-1 as described above were pre-incubated for 30 min at room temperature with 150 μg/ml Nectin-4 peptides in PBS in triplicate. CMFDA-stained NIH:OVCAR5-N4-over cells were then added to the wells and cell adhesion was quantified as described above. […]

[3] = test system: nectin 4 protein on NIH:OVCAR-5 cells; experiment: Effect of peptides on anti-Nectin-4 antibody binding to cells as determined by flow cytometry; assay type: cell-based, human; settings: for IgG MFI: IgG control primary antibody; for nectin-4 antibody binding compared to untreated control cells (in words): flow cytometry; for Flow binding: summary table, Nectin-4 antibody binding relative to control = 100
Description: Confluent monolayers of cells were detached from 75 cm^2 tissue culture flasks using Accutase cell dissociation buffer (Innovative Cell Technologies, San Diego, Calif.), washed, and labeled with mouse IgG or mAbs against Nectin-4 or Nectin-1 (2.5 μg/10^6 cells) in Flow Buffer [phosphate buffered saline (PBS) containing 2.5% newborn calf serum and 0.02% sodium azide] for 30 min at 4° C.. Cells were washed and incubated with goat anti-mouse IgG F(ab′)2 (Jackson ImmunoResearch, West Grove, Pa.), then washed again and incubated with streptavidin-allophycocyanin conjugate (Jackson ImmunoResearch, West Grove, Pa.) for 30 min each. Cells were washed and fixed in Flow Buffer containing 1% formaldehyde and analyzed in the University of Minnesota Flow Cytometry Resource with a BD Accuri™ C6 flow cytometer (BD Biosciences, San Jose, Calif.) using the Accuri™ software.
Briefly, NIH:OVCAR-5 cells that natively express a moderate amount of nectin 4 protein were incubated for 30 minutes in 150 μg/mL of soluble peptide in DMSO. After incubation, the cells were washed, and then triple antibody stained using mouse anti-nectin 4 (or IgG control) primary antibody, biotinylated goat anti-mouse secondary antibody, and streptavidin APC tertiary antibody. Finally, utilizing the University of Minnesota flow core's Accuri C6 flow cytometer, the relative antibody binding affinity for control and peptide-treated samples was quantitated and compared. Data was collected for each of the 57 peptides generated.

[4] = test system: ovarian cancer cell aggregation and spheroid formation; experiment: Spheroid assay for peptides (visual scale +1 to +5); assay type: cell-based, human; settings: visual scale of +1 to +5; for Spheroid-24: 24 hrs, Control = 2; for Spheroid-48: 48 hrs, Control = 4
Description: as §1
The clinical relevance is that by blocking the formation of spheroids, the cells will be more sensitive to chemotherapy (which targets the single cells that proliferate more rapidly than spheroids).
The spheroid assay for peptides 1-30 were scored using a visual scale of +1 to +5. The controls were scored at +2 (24 hrs) and +4 (48 hrs). […] It may be harder to visually assess the size at 24 hours, since the spheroids are relatively small, but and perhaps some of the peptides are affecting cell division, and that is why the spheroids are smaller than the controls at 48 hours, but not 24 hrs (this can be easily assayed with an MTT assay).

[5] = Run One, 150 μg/mL peptide, 30 minutes, Control 1 = 15,015
[6] = Run One, 150 μg/mL peptide, 30 minutes, Control 1 = 1,670
[7] = Run One, antibody binding relative to Control 1 = 100.00
[8] = Run Two, 150 μg/mL peptide, 30 minutes, Control 2 = 49,491
[9] = Run Two, antibody binding relative to Control 2 = 100.00

## CO[C@@]12[C@H](COC(N)=O)C3=C(C(=O)C(C)=C(N)C3=O)N1C[C@@H]1N[C@@H]12 [mitomycin C]
[1]; NIH:OVCAR5-VB3 cells with Nectin-4 knocked down by shRNA
  aggregation of cells in presence of mitomycin C: No difference was observed
[1]; shRNA control NIH:OVCAR5 cells, after 24 h
  spheroid size versus untreated control cells: smaller than the untreated control cells

## NWYLQRMDVKLTCK-NH2 (listed as Homo sapiens) [Peptide 49]
[2]
  effect on cell adhesion to Nectin-1 (in words): to a greater extent than the mAb against Nectin-1; also recorded: complete inhibition
[3]; Run Four, Control 4 = 9.387504873
  N4 MFI/IgG MFI: 10.36
[3]; Run Four, Control 4 = 1,026
  IgG MFI: 29486
[3]; Run Four, antibody binding relative to Control 4 = 100
  nectin-4 antibody binding, percent of control: 3206
[3]; 150 μg/mL peptide
  nectin-4 antibody binding compared to untreated control cells (in words): erroneous/outlier

## TCVVSHPGLLQDQR-NH2 (listed as Homo sapiens) [Peptide 17]
[4]
  Spheroid-24: 1
  Spheroid-48: 2
[3]; [5]
  N4 MFI: 20,511
[3]; [6]
  IgG MFI: 8,686
[3]; Run One, Control 1 = 8.99
  N4 MFI/IgG MFI: 2.36
[3]; [7]
  nectin-4 antibody binding, percent of control: 88.61

## TGNGIYINGRGHLV-NH2 (listed as Homo sapiens) [Peptide 29]
[4]
  Spheroid-24: 3
[3]; [8]
  N4 MFI: 18,643
[3]; Run Two, Control 2 = 9.46
  N4 MFI/IgG MFI: 6.04
[3]; Run Two, Control 2 = 5,233
  IgG MFI: 3,087
[3]; [9]
  nectin-4 antibody binding, percent of control: 35.15
[3]; 150 μg/mL peptide
  nectin-4 antibody binding compared to untreated control cells (in words): reduction in nectin-4 antibody binding
[3]
  Flow binding: 35%

## TTEHSGIYVCHVSN-NH2 (listed as Homo sapiens) [Peptide 24]
[4]
  Spheroid-48: 3
[3]; [8]
  N4 MFI: 33,353
[3]; Run Two, Control 2 = 9.46
  N4 MFI/IgG MFI: 8.76
[3]; Run Two, Control 2 = 5,233
  IgG MFI: 3,808
[3]; [9]
  nectin-4 antibody binding, percent of control: 66.76

## VDVLDPQEDSGKQV-NH2 (listed as Homo sapiens) [Peptide 26]
[4]
  Spheroid-24: 1
  Spheroid-48: 2
[3]; [8]
  N4 MFI: 35,299
[3]; Run Two, Control 2 = 9.46
  N4 MFI/IgG MFI: 8.92
[3]; Run Two, Control 2 = 5,233
  IgG MFI: 3,956
[3]; [9]
  nectin-4 antibody binding, percent of control: 70.82

## VSPAYEGRVEQPPP-NH2 (listed as Homo sapiens) [Peptide 6]
[4]
  Spheroid-24: 1
  Spheroid-48: 2
[3]; [5]
  N4 MFI: 12,682
[3]; [6]
  IgG MFI: 1,622
[3]; Run One, Control 1 = 8.99
  N4 MFI/IgG MFI: 7.82
[3]; [7]
  nectin-4 antibody binding, percent of control: 82.88

## VVLGQDAKLPCFYR-NH2 (listed as Homo sapiens) [Peptide 2]
[4]
  Spheroid-48: 3
[3]; [5]
  N4 MFI: 11,895
[3]; [6]
  IgG MFI: 2,458
[3]; Run One, Control 1 = 8.99
  N4 MFI/IgG MFI: 4.84
[3]; [7]
  nectin-4 antibody binding, percent of control: 70.72

## WTRLDGPLPSGVRV-NH2 (listed as Homo sapiens) [Peptide 22]
[4]
  Spheroid-24: 1
  Spheroid-48: 3
[3]; [8]
  N4 MFI: 70,336
[3]; Run Two, Control 2 = 9.46
  N4 MFI/IgG MFI: 9.82
[3]; Run Two, Control 2 = 5,233
  IgG MFI: 7,160
[3]; [9]
  nectin-4 antibody binding, percent of control: 142.74
[3]; 150 μg/mL peptide
  nectin-4 antibody binding compared to untreated control cells (in words): increased nectin-4 antibody binding
[3]
  Flow binding: 143%

## WTRLDGPLPSGVRVDGDT-NH2 (listed as Homo sapiens) [Peptide 28]
[4]
  Spheroid-48: 2
[3]; [8]
  N4 MFI: 41,302
[3]; Run Two, Control 2 = 9.46
  N4 MFI/IgG MFI: 10.83
[3]; Run Two, Control 2 = 5,233
  IgG MFI: 3,815
[3]; [9]
  nectin-4 antibody binding, percent of control: 84.70

## WTTLNGSLPKGVEAQNRT-NH2 (listed as Homo sapiens) [Peptide 57]
[4]
  Spheroid-48: 3
[3]; Run Five, 150 μg/mL peptide, 30 minutes, Control 5 = 17,768.90
  N4 MFI: 14,705.92
[3]; Run Five, Control 5 = 2.142155332
  N4 MFI/IgG MFI: 1.874
[3]; Run Five, Control 5 = 8,294.87
  IgG MFI: 7,848.89
[3]; Run Five, antibody binding relative to Control 5 = 100
  nectin-4 antibody binding, percent of control: 72.38
[3]; 150 μg/mL peptide
  nectin-4 antibody binding compared to untreated control cells (in words): reduction in nectin-4 antibody binding

## YRGDSGEQVGQVAW-NH2 (listed as Homo sapiens) [Peptide 3]
[4]
  Spheroid-48: 2
[3]; [5]
  N4 MFI: 6,987
[3]; [6]
  IgG MFI: 2,044
[3]; Run One, Control 1 = 8.99
  N4 MFI/IgG MFI: 3.42
[3]; [7]
  nectin-4 antibody binding, percent of control: 37.04
[3]; 150 μg/mL peptide
  nectin-4 antibody binding compared to untreated control cells (in words): reduction in nectin-4 antibody binding
[3]
  Flow binding: 37%
